Source: ChEMBL document CHEMBL4507287, “Data for DCP probe MRL-650” (2021)

What was measured:
[1] = target: Serine/threonine-protein kinase Nek9 (Homo sapiens) (UniProt Q8TD19); conditions: Compound concentration 1000.0 nM
[2] = target: 5-hydroxytryptamine receptor 2B (Homo sapiens) (UniProt P41595); conditions: Compound concentration 10.0 uM
[3] = target: Bone morphogenetic protein receptor type-1B (Homo sapiens) (UniProt O00238); conditions: Compound concentration 1000.0 nM
[4] = target: Serine/threonine-protein kinase B-raf (Homo sapiens) (UniProt P15056); conditions: Compound concentration 1000.0 nM
[5] = target: Cyclin-dependent kinase 9 (Homo sapiens) (UniProt P50750); conditions: Compound concentration 1000.0 nM
[6] = target: 5'-AMP-activated protein kinase catalytic subunit alpha-2 (Homo sapiens) (UniProt P54646); conditions: Compound concentration 1000.0 nM
[7] = system: Receptor-type tyrosine-protein kinase FLT3 (Homo sapiens), P36888 [D835V]; conditions: Compound concentration 1000.0 nM
[8] = target: Beta-3 adrenergic receptor (Homo sapiens, UniProt P13945); conditions: Compound concentration 10.0 uM
[9] = target: Receptor tyrosine-protein kinase erbB-2 (Homo sapiens) (UniProt P04626); conditions: Compound concentration 1000.0 nM
[10] = target: SRSF protein kinase 2 (Homo sapiens) (UniProt P78362); conditions: Compound concentration 1000.0 nM
[11] = target: Cyclin-dependent kinase 17 (Homo sapiens) (UniProt Q00537); conditions: Compound concentration 1000.0 nM
Chain of Cyclin-dependent kinase 17 (Homo sapiens) (Q00537 whole entry, looked up): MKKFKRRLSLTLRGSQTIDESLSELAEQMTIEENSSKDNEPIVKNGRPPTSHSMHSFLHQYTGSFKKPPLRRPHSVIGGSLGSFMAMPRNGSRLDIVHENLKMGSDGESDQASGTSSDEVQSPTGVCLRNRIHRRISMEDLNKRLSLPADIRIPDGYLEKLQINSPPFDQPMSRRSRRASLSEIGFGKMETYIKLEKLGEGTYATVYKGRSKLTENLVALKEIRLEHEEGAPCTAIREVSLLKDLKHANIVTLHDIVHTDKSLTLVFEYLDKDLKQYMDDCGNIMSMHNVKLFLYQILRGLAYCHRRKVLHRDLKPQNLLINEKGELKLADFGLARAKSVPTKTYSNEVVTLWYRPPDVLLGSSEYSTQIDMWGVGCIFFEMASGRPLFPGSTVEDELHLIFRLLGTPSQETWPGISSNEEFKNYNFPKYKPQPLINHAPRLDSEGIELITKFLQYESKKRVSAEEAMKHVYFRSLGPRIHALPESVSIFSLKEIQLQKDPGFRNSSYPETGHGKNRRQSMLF

[12] = target: Interleukin-1 receptor-associated kinase 1 (Homo sapiens) (UniProt P51617); conditions: Compound concentration 1000.0 nM
[13] = target: Testis-specific serine/threonine-protein kinase 3 (Homo sapiens) (UniProt Q96PN8); conditions: Compound concentration 1000.0 nM
[14] = target: Death-associated protein kinase 1 (Homo sapiens) (UniProt P53355); conditions: Compound concentration 1000.0 nM
[15] = target: Serine/threonine-protein kinase Nek11 (Homo sapiens) (UniProt Q8NG66); conditions: Compound concentration 1000.0 nM
Chain of Serine/threonine-protein kinase Nek11 (Homo sapiens) (Q8NG66 whole entry): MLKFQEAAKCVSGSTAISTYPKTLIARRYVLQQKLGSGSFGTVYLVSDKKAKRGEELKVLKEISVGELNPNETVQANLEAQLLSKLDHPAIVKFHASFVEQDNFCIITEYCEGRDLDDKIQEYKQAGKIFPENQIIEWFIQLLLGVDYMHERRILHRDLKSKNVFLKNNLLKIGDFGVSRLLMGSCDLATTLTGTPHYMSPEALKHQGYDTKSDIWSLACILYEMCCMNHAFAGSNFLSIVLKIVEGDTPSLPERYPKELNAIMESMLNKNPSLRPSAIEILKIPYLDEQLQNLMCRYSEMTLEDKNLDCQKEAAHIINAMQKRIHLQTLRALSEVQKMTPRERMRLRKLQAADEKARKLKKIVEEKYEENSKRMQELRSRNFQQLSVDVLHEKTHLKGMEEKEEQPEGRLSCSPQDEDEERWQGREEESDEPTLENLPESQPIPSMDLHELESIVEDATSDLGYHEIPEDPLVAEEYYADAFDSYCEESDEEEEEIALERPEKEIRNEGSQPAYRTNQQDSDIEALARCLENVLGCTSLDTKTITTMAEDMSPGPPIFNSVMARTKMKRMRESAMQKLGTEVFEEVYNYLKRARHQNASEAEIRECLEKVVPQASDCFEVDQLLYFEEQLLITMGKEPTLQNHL

[16] = target: Mitogen-activated protein kinase kinase kinase kinase 2 (Homo sapiens) (UniProt Q12851); conditions: Compound concentration 1000.0 nM
[17] = target: Dual specificity testis-specific protein kinase 1 (Homo sapiens) (UniProt Q15569); conditions: Compound concentration 1000.0 nM
[18] = target: Mitogen-activated protein kinase 9 (Homo sapiens) (UniProt P45984); conditions: Compound concentration 1000.0 nM
[19] = target: Tyrosine-protein kinase TXK (Homo sapiens) (UniProt P42681); conditions: Compound concentration 1000.0 nM
[20] = target: Tyrosine-protein kinase ABL1 (Homo sapiens) (UniProt P00519); conditions: Compound concentration 1000.0 nM
[21] = target: Serine/threonine-protein kinase pim-1 (Homo sapiens) (UniProt P11309); conditions: Compound concentration 1000.0 nM
[22] = target: Ankyrin repeat and protein kinase domain-containing protein 1 (Homo sapiens) (UniProt Q8NFD2); conditions: Compound concentration 1000.0 nM
[23] = target: cAMP-dependent protein kinase catalytic subunit PRKX (Homo sapiens) (UniProt P51817); conditions: Compound concentration 1000.0 nM
Chain of cAMP-dependent protein kinase catalytic subunit PRKX (Homo sapiens) (P51817 whole entry): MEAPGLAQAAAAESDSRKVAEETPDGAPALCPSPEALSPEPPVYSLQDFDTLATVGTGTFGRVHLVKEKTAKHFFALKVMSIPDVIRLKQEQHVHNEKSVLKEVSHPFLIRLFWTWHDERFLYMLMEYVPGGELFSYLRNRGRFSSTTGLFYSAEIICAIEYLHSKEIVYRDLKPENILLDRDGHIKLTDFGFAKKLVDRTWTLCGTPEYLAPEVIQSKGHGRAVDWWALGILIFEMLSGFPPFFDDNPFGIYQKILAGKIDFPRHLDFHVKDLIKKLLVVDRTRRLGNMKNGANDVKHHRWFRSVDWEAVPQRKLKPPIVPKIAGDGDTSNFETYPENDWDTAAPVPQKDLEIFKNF

[24] = target: Ribosomal protein S6 kinase beta-1 (Homo sapiens) (UniProt P23443); conditions: Compound concentration 1000.0 nM
[25] = target: Insulin-like growth factor 1 receptor (Homo sapiens) (UniProt P08069); conditions: Compound concentration 1000.0 nM
[26] = target: Serine/threonine-protein kinase TBK1 (Homo sapiens) (UniProt Q9UHD2); conditions: Compound concentration 1000.0 nM
[27] = target: Mitogen-activated protein kinase kinase kinase 6 (Homo sapiens) (UniProt O95382); conditions: Compound concentration 1000.0 nM
Chain of Mitogen-activated protein kinase kinase kinase 6 (Homo sapiens) (O95382 whole entry): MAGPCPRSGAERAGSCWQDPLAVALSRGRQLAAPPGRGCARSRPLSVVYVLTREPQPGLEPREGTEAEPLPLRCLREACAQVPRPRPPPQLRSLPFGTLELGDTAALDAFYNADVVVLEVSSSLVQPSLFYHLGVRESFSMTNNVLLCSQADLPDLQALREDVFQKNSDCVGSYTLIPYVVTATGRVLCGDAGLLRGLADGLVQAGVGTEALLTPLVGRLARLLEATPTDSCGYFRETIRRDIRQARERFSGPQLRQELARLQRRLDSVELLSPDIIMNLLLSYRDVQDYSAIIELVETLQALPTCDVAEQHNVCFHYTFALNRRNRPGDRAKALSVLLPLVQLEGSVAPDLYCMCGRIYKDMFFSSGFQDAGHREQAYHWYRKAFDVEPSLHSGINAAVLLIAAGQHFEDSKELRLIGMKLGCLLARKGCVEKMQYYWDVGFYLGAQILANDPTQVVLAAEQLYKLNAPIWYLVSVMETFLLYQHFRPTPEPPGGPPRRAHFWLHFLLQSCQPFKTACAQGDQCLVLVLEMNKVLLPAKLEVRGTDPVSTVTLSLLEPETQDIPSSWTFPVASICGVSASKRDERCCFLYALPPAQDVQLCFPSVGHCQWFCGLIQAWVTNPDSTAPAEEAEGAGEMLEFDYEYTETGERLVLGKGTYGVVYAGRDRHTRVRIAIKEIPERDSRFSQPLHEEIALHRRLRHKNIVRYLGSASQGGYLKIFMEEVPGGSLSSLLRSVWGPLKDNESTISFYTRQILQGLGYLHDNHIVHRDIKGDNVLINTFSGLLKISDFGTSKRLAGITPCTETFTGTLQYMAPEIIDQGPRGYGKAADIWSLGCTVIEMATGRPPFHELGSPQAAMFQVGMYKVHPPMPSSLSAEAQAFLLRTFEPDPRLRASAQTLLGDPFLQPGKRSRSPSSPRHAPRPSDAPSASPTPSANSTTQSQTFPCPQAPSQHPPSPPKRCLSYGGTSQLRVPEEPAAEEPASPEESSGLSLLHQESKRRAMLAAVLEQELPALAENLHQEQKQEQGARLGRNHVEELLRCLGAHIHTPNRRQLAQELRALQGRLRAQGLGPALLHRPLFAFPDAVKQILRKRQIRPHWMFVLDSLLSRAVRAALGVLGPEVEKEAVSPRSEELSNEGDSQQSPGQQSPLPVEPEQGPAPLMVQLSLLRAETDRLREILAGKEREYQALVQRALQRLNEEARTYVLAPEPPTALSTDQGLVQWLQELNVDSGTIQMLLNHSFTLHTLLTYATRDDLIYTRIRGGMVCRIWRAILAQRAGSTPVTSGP

[28] = target: Histamine H3 receptor (Homo sapiens) (UniProt Q9Y5N1); conditions: Compound concentration 10.0 uM
[29] = target: Eukaryotic translation initiation factor 2-alpha kinase 1 (Homo sapiens) (UniProt Q9BQI3); conditions: Compound concentration 1000.0 nM
Chain of Eukaryotic translation initiation factor 2-alpha kinase 1 (Homo sapiens) (Q9BQI3 whole entry): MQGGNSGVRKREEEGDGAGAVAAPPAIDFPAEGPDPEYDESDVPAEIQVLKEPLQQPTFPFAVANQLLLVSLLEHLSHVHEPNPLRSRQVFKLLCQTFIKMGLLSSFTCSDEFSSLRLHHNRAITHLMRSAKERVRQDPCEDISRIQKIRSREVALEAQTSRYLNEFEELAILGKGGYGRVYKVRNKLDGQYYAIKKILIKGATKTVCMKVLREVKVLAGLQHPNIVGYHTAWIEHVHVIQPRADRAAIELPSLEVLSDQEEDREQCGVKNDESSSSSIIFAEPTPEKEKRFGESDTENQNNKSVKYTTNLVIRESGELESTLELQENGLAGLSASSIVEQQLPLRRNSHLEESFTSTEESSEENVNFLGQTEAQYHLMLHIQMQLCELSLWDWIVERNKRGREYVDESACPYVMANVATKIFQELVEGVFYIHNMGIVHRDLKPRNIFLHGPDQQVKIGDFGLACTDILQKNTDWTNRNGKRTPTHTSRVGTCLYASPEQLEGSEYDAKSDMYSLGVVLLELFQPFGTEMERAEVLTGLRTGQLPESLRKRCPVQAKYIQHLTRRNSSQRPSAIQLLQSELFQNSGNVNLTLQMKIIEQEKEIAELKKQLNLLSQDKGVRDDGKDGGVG

[30] = target: Serine/threonine-protein kinase TAO2 (Homo sapiens) (UniProt Q9UL54); conditions: Compound concentration 1000.0 nM
[31] = target: D(3) dopamine receptor (Homo sapiens) (UniProt P35462); conditions: Compound concentration 10.0 uM
Chain of D(3) dopamine receptor (Homo sapiens) (P35462 whole entry): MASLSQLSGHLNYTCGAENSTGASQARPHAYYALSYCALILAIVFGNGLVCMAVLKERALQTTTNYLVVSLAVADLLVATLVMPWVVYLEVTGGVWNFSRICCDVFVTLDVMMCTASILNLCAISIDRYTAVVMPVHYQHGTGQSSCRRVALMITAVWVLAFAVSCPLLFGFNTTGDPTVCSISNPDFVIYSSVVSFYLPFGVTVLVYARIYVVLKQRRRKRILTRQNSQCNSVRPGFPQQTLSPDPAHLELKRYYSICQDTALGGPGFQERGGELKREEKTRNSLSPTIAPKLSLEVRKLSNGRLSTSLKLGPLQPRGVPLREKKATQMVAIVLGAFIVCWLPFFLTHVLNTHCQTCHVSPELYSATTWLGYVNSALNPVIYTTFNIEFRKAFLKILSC

[32] = target: RAC-gamma serine/threonine-protein kinase (Homo sapiens) (UniProt Q9Y243); conditions: Compound concentration 1000.0 nM
Chain of RAC-gamma serine/threonine-protein kinase (Homo sapiens) (Q9Y243 whole entry): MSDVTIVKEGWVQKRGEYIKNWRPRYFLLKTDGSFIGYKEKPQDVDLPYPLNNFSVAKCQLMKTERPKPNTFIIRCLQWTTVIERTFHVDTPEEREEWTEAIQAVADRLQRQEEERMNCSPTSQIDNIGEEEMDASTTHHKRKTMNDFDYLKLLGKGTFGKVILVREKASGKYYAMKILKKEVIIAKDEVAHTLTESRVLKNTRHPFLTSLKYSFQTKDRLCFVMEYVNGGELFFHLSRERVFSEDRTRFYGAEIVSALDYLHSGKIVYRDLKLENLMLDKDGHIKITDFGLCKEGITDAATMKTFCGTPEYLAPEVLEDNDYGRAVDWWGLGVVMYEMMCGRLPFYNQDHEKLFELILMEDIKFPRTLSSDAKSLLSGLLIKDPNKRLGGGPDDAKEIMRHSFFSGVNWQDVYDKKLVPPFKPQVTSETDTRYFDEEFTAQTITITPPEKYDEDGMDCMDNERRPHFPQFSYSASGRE

[33] = system: Proto-oncogene tyrosine-protein kinase receptor Ret (Homo sapiens), P07949 [V804M]; conditions: Compound concentration 1000.0 nM
[34] = target: Tyrosine-protein kinase Yes (Homo sapiens) (UniProt P07947); conditions: Compound concentration 1000.0 nM
[35] = target: Serine/threonine-protein kinase Nek1 (Homo sapiens) (UniProt Q96PY6); conditions: Compound concentration 1000.0 nM
[36] = target: Ephrin type-A receptor 1 (Homo sapiens) (UniProt P21709); conditions: Compound concentration 1000.0 nM
[37] = target: Vascular endothelial growth factor receptor 3 (Homo sapiens) (UniProt P35916); conditions: Compound concentration 1000.0 nM
[38] = target: Calcium/calmodulin-dependent protein kinase kinase 1 (Homo sapiens) (UniProt Q8N5S9); conditions: Compound concentration 1000.0 nM
Chain of Calcium/calmodulin-dependent protein kinase kinase 1 (Homo sapiens) (Q8N5S9 whole entry, looked up): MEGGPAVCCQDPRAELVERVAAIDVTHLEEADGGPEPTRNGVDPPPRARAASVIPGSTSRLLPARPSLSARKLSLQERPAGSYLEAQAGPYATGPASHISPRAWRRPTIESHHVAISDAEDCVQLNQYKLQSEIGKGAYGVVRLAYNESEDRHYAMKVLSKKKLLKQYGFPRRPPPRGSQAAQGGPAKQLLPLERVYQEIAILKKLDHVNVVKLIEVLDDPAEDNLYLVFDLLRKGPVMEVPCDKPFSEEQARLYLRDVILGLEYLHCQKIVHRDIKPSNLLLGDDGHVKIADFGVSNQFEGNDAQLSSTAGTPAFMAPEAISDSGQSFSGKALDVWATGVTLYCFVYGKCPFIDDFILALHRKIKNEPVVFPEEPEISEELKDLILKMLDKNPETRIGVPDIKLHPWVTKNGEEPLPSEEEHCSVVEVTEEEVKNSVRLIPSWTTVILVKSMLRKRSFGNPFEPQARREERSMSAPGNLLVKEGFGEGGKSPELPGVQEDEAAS

[39] = target: Serine/threonine-protein kinase Nek7 (Homo sapiens) (UniProt Q8TDX7); conditions: Compound concentration 1000.0 nM
[40] = system: Epidermal growth factor receptor (Homo sapiens), P00533 [UNDEFINED MUTATION]; conditions: Compound concentration 1000.0 nM
[41] = target: D(2) dopamine receptor (Homo sapiens) (UniProt P14416); conditions: Compound concentration 10.0 uM
[42] = target: Ribosomal protein S6 kinase alpha-1 (Homo sapiens) (UniProt Q15418); conditions: Compound concentration 1000.0 nM
[43] = target: BMP-2-inducible protein kinase (Homo sapiens) (UniProt Q9NSY1); conditions: Compound concentration 1000.0 nM
[44] = target: Macrophage-stimulating protein receptor (Homo sapiens) (UniProt Q04912); conditions: Compound concentration 1000.0 nM
[45] = target: SNF-related serine/threonine-protein kinase (Homo sapiens) (UniProt Q9NRH2); conditions: Compound concentration 1000.0 nM

## CC(=O)c1c(NS(C)(=O)=O)c2cc(-c3ccc(Cl)cc3)c(-c3ccc(Cl)cc3Cl)nc2n(C)c1=O [MRL-CB1-NC]
[1]
  residual activity: 100%
[2]
  inhibition: -0.601%
[3]
  residual activity: 100%
[4]
  residual activity: 90%
[5]
  residual activity: 91%
[6]
  residual activity: 85%
[7]
  residual activity: 89%
[8]
  inhibition: 69.3%
[9]
  residual activity: 100%
[10]
  residual activity: 100%
[11]
  residual activity: 100%
[12]
  residual activity: 92%
[13]
  residual activity: 100%
[14]
  residual activity: 80%
[15]
  residual activity: 79%
[16]
  residual activity: 82%
[17]
  residual activity: 100%
[18]
  residual activity: 67%
[19]
  residual activity: 100%
[20]
  residual activity: 91%
[21]
  residual activity: 90%
[22]
  residual activity: 70%
[23]
  residual activity: 97%
[24]
  residual activity: 95%
[25]
  residual activity: 100%
[26]
  residual activity: 92%
[27]
  residual activity: 83%
[28]
  inhibition: 0.553%
[29]
  residual activity: 83%
[30]
  residual activity: 97%
[31]
  inhibition: 5.91%
[32]
  residual activity: 91%
[33]
  residual activity: 100%
[34]
  residual activity: 96%
[35]
  residual activity: 100%
[36]
  residual activity: 100%
[37]
  residual activity: 100%
[38]
  residual activity: 100%
[39]
  residual activity: 100%
[40]
  residual activity: 100%
[41]
  inhibition: 2.43%
[42]
  residual activity: 88%
[43]
  residual activity: 100%
[44]
  residual activity: 88%
[45]
  residual activity: 98%

## CC(=O)Nc1c(C(C)=O)c(=O)n(C)c2nc(-c3ccc(Cl)cc3Cl)c(-c3ccc(Cl)cc3)cc12 [NAPHTHYRIDINONE]
[1]
  residual activity: 100%
[2]
  inhibition: 1.6%
[3]
  residual activity: 100%
[4]
  residual activity: 100%
[5]
  residual activity: 100%
[6]
  residual activity: 100%
[7]
  residual activity: 82%
[8]
  inhibition: 37.6%
[9]
  residual activity: 100%
[10]
  residual activity: 100%
[11]
  residual activity: 100%
[12]
  residual activity: 97%
[13]
  residual activity: 100%
[14]
  residual activity: 100%
[15]
  residual activity: 100%
[16]
  residual activity: 92%
[17]
  residual activity: 100%
[18]
  residual activity: 100%
[19]
  residual activity: 100%
[20]
  residual activity: 85%
[21]
  residual activity: 100%
[22]
  residual activity: 100%
[23]
  residual activity: 100%
[24]
  residual activity: 95%
[25]
  residual activity: 100%
[26]
  residual activity: 81%
[27]
  residual activity: 94%
[28]
  inhibition: -2.68%
[29]
  residual activity: 68%
[30]
  residual activity: 88%
[31]
  inhibition: 14.3%
[32]
  residual activity: 100%
[33]
  residual activity: 100%
[34]
  residual activity: 100%
[35]
  residual activity: 100%
[36]
  residual activity: 100%
[37]
  residual activity: 100%
[38]
  residual activity: 100%
[39]
  residual activity: 100%
[40]
  residual activity: 100%
[41]
  inhibition: 5.73%
[42]
  residual activity: 100%
[43]
  residual activity: 100%
[44]
  residual activity: 100%
[45]
  residual activity: 78%
